In patent US11197836B2, “Topical vasoconstrictor preparations and methods for protecting cells during cancer chemotherapy and radiotherapy” (WISCONSIN ALUMNI RESEARCH FOUNDATION, priority 2005, dated 2021):
Where a name gives a salt, the structure may show the parent alone. Read-outs that look alike come from different tables or passages of the source.

Experiments:
[1] = tested on: chemotherapy-induced alopecia; conditions: 950 mM topical four times in two hr, 10 day old rat pups, Cytoxan 30 μg/gm b.w. i.p.
human skin = conditions: for Skin Blanch Response: human arm skin
[2] = tested on: radiation-induced or Cytoxan-induced alopecia; conditions: neonate rat, day 20 of life
Description: The severity of the alopecia was scored nine days later—on day 20 of life.

[3] = tested on: radiation-induced dermatitis of rat skin; conditions: for Radiation Dermatitis Score (% of Irradiated 4.5 cm^2 Area Free of Scab material): rat, 8.7 Gy γ, scored 13 days later
[4] = tested on: radiation-induced oral mucositis; conditions: for Muscositis Severity Score: score 0-17, day 16
Procedure: In an assay based upon Alvarez eta/. […] Additional topical formulation was applied with Q-tip to uniformly cover the everted, interior surface of the cheek pouch. After 20 min, the vehicle-coated, immobilized cheek pouch was taped into position over a 1.5 cm diameter window bored through a 2.5 cm thick lead plate. The sleeping hamster was immobilized on a small shelf on the plate that enabled cheek pouch irradiation through the window.
After irradiation, the cheek pouch was rinsed with water, blotted and reverted. The severity of mucositis in the irradiated cheek pouch was scored 16 days later using the following criteria.

cheek pouch oral mucosa = experiment: Blanch response of hamster cheek pouch oral mucosa, Example 15; format: in vivo, Syrian Golden hamster; conditions: 10 mM in 5:1:94 ethanol:HPMC:PBS, after 30 min
Procedure: Hamsters were anesthetized with sodium pentobarbital, the cheek pouch was everted with forceps, rinsed with water and blotted, and immobilized on a 2 cm diameter inert plastic disk using stainless steel clips (see panels in FIG. 11). […] Digital images were recorded.

[5] = Sustained solubility of norepinephrine tartrate in ethanol:PG:water mixtures, Example 7; format: physicochemical; conditions: 600 mM
Procedure: Solvent composed of ethanol:propylene glycol (PG):water in the percentages (vol:vol:vol)·specified in FIG. 3 was then added to each vial. Vials were heated as necessary to dissolve norepinephrine by touching vials to a boiling water bath for one second increments and then vortexing until clear. Sealed vials were left at room temperature for 24 hours, and at 4° C. for 24 hours. During the two 24 hour incubations, liquid in each vial was examined using a magnifying glass to identify the formation of any crystalline material. If crystals formed, norepinephrine was noted as “insoluble” at that solvent mixture.

[6] = tested on: radiodermatitis of rat skin; experiment: Radiodermatitis prevention after 27 Gy 6 MeV electron beam irradiation of rat skin, Example 14; format: in vivo; conditions: 300 mM topical
Procedure: Adult rats ([…]) were clipped to remove the coat covering their dorsal backs. Aliquots (100 μl) of topical drug formulation containing 300 mM norepinephrine were applied once to the backs of the rats, and at set time points afterward, a rectangle (1.5 cm×3 cm) within the topical treatment field received a 27 Gy dose of 6 MeV electrons from a linear accelerator. Animals were anesthetized with 30 μg/gm b.w. sodium pentobarbital prior to irradiation. Following irradiation, rats were returned to cages, and 13 days later the severity of radiodermatitis within the irradiated rectangular field was visually scored and photographed. A “Radiodermatitis Severity Score” between 0 and 100 represents the percentage of the irradiated field that is covered by scab material on day 13 following irradiation.

dermal vasculature = experiment: Exclusion of systemic dye from rat skin (colorimeter), Example 18; format: in vivo; conditions: 300 mM in 50:30:20 vehicle, 30 min time point
Procedure: 400 μl of a black dye solution was injected into each test rat as an i.p. bolus at 10 min after topical treatment with either 300 mM norepinephrine or vehicle alone. Colorimeter measurements of skin color in patches were made and the progression was recorded from 0 through 30 min. The change in colorimeter units between the 0 min reading and readings at indicated time points are plotted in FIG. 15. Colorimeter measurements of skin color were made using a CR-400 colorimeter (Minolta Corp.).

adrenergic receptor = conditions: cited from earlier work
rat skin = experiment: Penetration of topically applied dye into rat skin; format: in vivo; conditions: applied to rat skin in an alcohol:water solution
Description: It is preferred for certain embodiments of the invention directed to skin applications to optimize ethanol, propylene glycol, and water percentages to enable sufficient delivery of epinephrine, phenylephrine, norepinephrine, or methoxamine to the skin vasculature, to achieve transient, vasculature constriction, and by so-doing, confer protection to the stem cells of the epidermis and hair follicle. The primary skin vasculature is located within the dermis, largely creating a vascular web surrounding the hair follicle bulbs (shown in FIG. 1). Topical drug delivery to this vasculature is primarily achieved by “transfolicular” delivery, i.e., topically-applied alcohol:water solutions travel within the hair shaft channels to the hair follicle bulb, and then diffuse through the stem cells that comprise the hair follicle bulb to access the dermal vasculature surrounding the bulb. For topical solutions to access dermal vasculature, a minimum percentage of alcohol in the topical delivery vehicle is preferred to enable: i) dissolution or softening of sebaceous oil present in human hair shaft channels, and ii) penetration of the oil-stratum corneum matrix.

Compound: CNC[C@H](O)c1ccc(O)c(O)c1 [epinephrine, epinephrine-HCl]
- coat protection on day 20 [1]: partial coat protection
- Skin Blanch Response (human skin; 2 mM in 50:25:25 ethanol:propylene glycol:water, 45 min): 10%
- Skin Blanch Response (human skin; 2 mM in 50:25:25 ethanol:propylene glycol:water, 60 min): 40%
- Skin Blanch Response (human skin; 2 mM in 50:25:25 ethanol:propylene glycol:water, 150 min): 75%
- Skin Blanch Response (human skin; 10 mM in 50:25:25 ethanol:propylene glycol:water, 45 min): 40%
- Skin Blanch Response (human skin; 10 mM in 50:25:25 ethanol:propylene glycol:water, 60 min): 60%
- Skin Blanch Response (human skin; 10 mM in 50:25:25 ethanol:propylene glycol:water, 150 min): 90%
- Skin Blanch Response (human skin; 50 mM in 50:25:25 ethanol:propylene glycol:water, 45 min): 30%
- Skin Blanch Response (human skin; 50 mM in 50:25:25 ethanol:propylene glycol:water, 60 min): 50%
- Skin Blanch Response (human skin; 50 mM in 50:25:25 ethanol:propylene glycol:water, 150 min): 85%
- Skin Blanch Response (human skin; 0.1% (4.55 mM) in water, 45 min): 0%
- Skin Blanch Response (human skin; 0.1% (4.55 mM) in water, 60 min): 0%
- Skin Blanch Response (human skin; 0.1% (4.55 mM) in water, 150 min): 0%
- Skin Blanch Response (human skin; 0.1% (4.55 mM) in water, 180 min): 0%
- blanching of the skin (human skin; 0.1% aqueous solution, human skin, over the 180 min observation period): no detectable blanching
- Skin Blanch Response (human skin; 100 mM in 50:25:25 ethanol:propylene glycol:water, 45 min): 85%
- Skin Blanch Response (human skin; 100 mM in 50:25:25 ethanol:propylene glycol:water, 60 min): 90%
- Skin Blanch Response (human skin; 100 mM in 50:25:25 ethanol:propylene glycol:water, 150 min): 90%
- Skin Blanch Response (human skin; 1000 mM in 50:25:25 ethanol:propylene glycol:water, 45 min): 85%
- Skin Blanch Response (human skin; 1000 mM in 50:25:25 ethanol:propylene glycol:water, 60 min): 90%
- Skin Blanch Response (human skin; 1000 mM in 50:25:25 ethanol:propylene glycol:water, 150 min): 95%
- Alopecia Score (% Normal Coat Density in Topical Treatment Area) ([2]; 20 mM, vehicle 50:25:25, Irradiation 7.5 Gy whole-body): 6%
- Alopecia Score (% Normal Coat Density in Topical Treatment Area) ([2]; 100 mM, vehicle 50:25:25, Irradiation 7.5 Gy whole-body): 33%
- Alopecia Score (% Normal Coat Density in Topical Treatment Area) ([2]; 500 mM, vehicle 50:25:25, Irradiation 7.5 Gy whole-body): 45%
- Alopecia Score (% Normal Coat Density in Topical Treatment Area) ([2]; 1000 mM, vehicle 0:100:0, Irradiation 7.5 Gy whole-body): 95%
- Alopecia Score (% Normal Coat Density in Topical Treatment Area) ([2]; 1000 mM, vehicle 25:30:45, Cytoxan 32 μ/gm b.w. i.p.): 40%
- Alopecia Score (% Normal Coat Density in Topical Treatment Area) ([2]; 1000 mM, vehicle 25:30:45 ethanol:propylene glycol:water, alopecia-inducing agent None): 100%
- Alopecia Score (% Normal Coat Density in Topical Treatment Area) ([2]; 1000 mM, vehicle 50:25:25, Irradiation 7.5 Gy whole-body): 94%
- Radiation Dermatitis Score (% of Irradiated 4.5 cm^2 Area Free of Scab material) ([3]; 20 mM, vehicle 50:30:20, four topical applications): 32%
- Radiation Dermatitis Score (% of Irradiated 4.5 cm^2 Area Free of Scab material) ([3]; 300 mM, vehicle 25:30:45, four topical applications): 95%
- Radiation Dermatitis Score (% of Irradiated 4.5 cm^2 Area Free of Scab material) ([3]; 1000 mM, vehicle 50:30:20, four topical applications): 100%
- concentration applied to skin required to confer protection against radiation dermatitis ([3]; rat skin): > 20 mM
- Muscositis Severity Score ([4]; 0.05 mM, vehicle 5:5:3:87 ethanol:propylene glycol:HPMC:PBS, irradiation 20 min, Experiment C): 7.5
- Muscositis Severity Score ([4]; 0.10 mM, vehicle 5:5:3:87, irradiation 20 min, Experiment C): 5.0
- Muscositis Severity Score ([4]; 0.20 mM, vehicle 5:5:3:87, irradiation 20 min, Experiment C): 3.0
- Muscositis Severity Score ([4]; 0.40 mM, vehicle 5:5:3:87, irradiation 20 min, Experiment C): 0
- Muscositis Severity Score ([4]; 13.5 mM epinephrine + 12.3 mM epinephrine, vehicle 0:5:3:92, irradiation 24 min, Experiment B): 11.7 ± 0.7
- Muscositis Severity Score ([4]; 100.00 mM, vehicle 5:0:1:94, irradiation 24 min, Experiment A): 14.5 ± 2.4
- Muscositis Severity Score ([4]; 500.00 mM, vehicle 5:0:1:94, irradiation 24 min, Experiment A): 9.0
- lowest topical concentration with discernible radioprotection of a mucosal site ([4]; hamster cheek pouch): 50 µM
- appearance of cheek pouch (blanch) (cheek pouch oral mucosa): white and translucent

Compound: NC[C@H](O)c1ccc(O)c(O)c1 [norepinephrine]
- solubility (no crystals over 24 hr room temperature and 24 hr 4° C.) ([5]; 55:20:25 ethanol:PG:water): not soluble
- solubility (no crystals over 24 hr room temperature and 24 hr 4° C.) ([5]; around 50:30:20 ethanol:PG:water): areas of solubility
- solubility (no crystals over 24 hr room temperature and 24 hr 4° C.) ([5]; around 60:10:30 ethanol:PG:water): areas of solubility
- protection against Grade 2 dermatitis [6]: complete protection
- reduction of delivery of systemic, blood-borne dye to treated skin (dermal vasculature): 39%
- agonism of the β2 receptor (adrenergic receptor): not an agonist of the β2 receptor
- binding affinity (potency) for the α1 adrenergic receptor (adrenergic receptor): slightly better than for epinephrine

Compound: CCN(CC)c1ccc2nc3c4ccccc4c(=O)cc-3oc2c1 [Nile Red]
- skin penetration (rat skin): penetrates both the stratum corneum and underlying epidermis
